Source: US20170209472A1, “PREVENTION OR TREATMENT OF FOOD ALLERGY IN INFANTS AND TODDLERS” (N.V. Nutricia, priority 2014, published 2017)

Tests used:
IL-33 [1] = assay: systemic IL-33 measured by ELISA in mice serum; format: in vivo; details: DON gavage; data not shown
Caco-2 cells = assay: IL-33 in DON-stimulated Caco-2 cells; format: cell-based; details: data not shown
IL-33 mRNA = details: distal small intestine, 6 h after oral DON gavage 25 mg/kg, vs control mice
IL-33 [2] = details: distal small intestine after DON gavage, vs control mice
[3] = tested on: whey protein allergy response; details: C3H/HeOuJ mice sensitized with low or high dose DON with or without whey; FIG. 2
[4] = water and polar solvents such as methanol and acetonitrile; cited from earlier work

CC1=C[C@H]2O[C@@H]3[C@H](O)C[C@](C)([C@@]2(CO)[C@H](O)C1=O)[C@]31CO1 [DON, (3α, 7α)-3,7,15-trihydroxy-12,13-epoxytrichothec-9-en-8-one]
systemic IL-33 in serum (IL-33 [1]): neither affected | IL-33 levels in the supernatant (Caco-2 cells): did not induce increased | IL-33 mRNA expression levels (Caco-2 cells): did not induce increased | IL-33 mRNA expression (IL-33 mRNA): increase | IL-33 production (immunohistochemistry) (IL-33 [2]): obviously increased | whey protein allergy response (ear swelling) [3]: significantly increases | solubility [4]: soluble
